From patent publication US20230021483A1, “[…] […] METHOD AND CLASSIFICATION OF PHARMACEUTICAL COMPONENTS BY USING TRANSCRIPTOMES” (National Institutes of Biomedical Innovation, Health and …, priority 2016, published 2023)

Tests used:
liver (LV) = test: Whole organ transcriptome (GeneChip microarray) of liver 6 h after adjuvant administration: sDEGs, hierarchical clustering; format: in vivo, C57BL/6 mice; conditions: liver; for adjuvant group (cluster) in LV: key: G1 (interferon signaling); G2 (metabolism of lipids and lipoproteins); G3 (response to stress); G4 (response to wounding); G5 (phosphate-containing compound metabolic process); G6 (phagosome)
[1] = tested on: adjuvant-associated biological themes in LV, SP, LN; conditions: LV, ID
Procedure, shortened: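 Per-mouse whole-organ transcriptomes; genes with eij/ei(c)>2.0 tested for theme enrichment via TargetMine (GO, KEGG, Reactome, others), Fisher's exact test, Holm-Bonferroni correction. Themes shared by all three mice kept at p<0.05, using the smallest p. Score per adjuvant-associated term = Σ−log(p) of matching themes.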

## Nc1nc2c(ncn2[C@@H]2O[C@@H]3COP(=O)(O)O[C@H]4[C@@H](O)[C@H](n5cnc6c(N)ncnc65)O[C@@H]4COP(=O)(O)O[C@@H]2[C@@H]3O)c(=O)[nH]1 [cGAMP, Cyclic [G(2′,5′)pA(3′,5′)p]]
Liver (LV); hierarchical clustering
  adjuvant group (cluster) in LV: G1
Liver (LV); i.d. administration, fold change <0.667, p<0.01, customized PA call=1, 6 h after adjuvant
  Number of gene probes with statistically significant changes (sDEGs), LV, Down: 248
Liver (LV); i.d. administration, fold change >1.5, p<0.01, customized PA call=1, 6 h after adjuvant
  Number of gene probes with statistically significant changes (sDEGs), LV, Up: 841
[1]
  GO annotation: Cytokine-cytokine receptor interaction (Term: cytokine): 5.57
  GO annotation: Cytokine-cytokine receptor interaction|Endocytosis (Term: cytokine): 24.6
  GO annotation: NF-kappa B signaling pathway (Term: NF-kappa B signaling pathway): 4.86
  GO annotation: TNF signaling pathway (Term: TNF signaling pathway): 27.6
  GO annotation: activation of immune response (Term: immune response): 12.6
  GO annotation: activation of innate immune response (Term: innate immune response): 16.9
  GO annotation: acute inflammatory response (Term: inflammatory response): 0
  GO annotation: adaptive immune response (Term: adaptive immune response): 0
  GO annotation: adaptive immune response based on somatic recombination of immune receptors built from immunoglobulin superfamily domains (Term: adaptive immune response): 3.78
  GO annotation: apoptotic process (Term: apoptosis): 4.46
  GO annotation: apoptotic signaling pathway (Term: apoptosis): 0
  GO annotation: cell chemotaxis (Term: chemotaxis): 4.4
  GO annotation: cell death (Term: cell death): 10.2
  GO annotation: cell migration (Term: migration): 0
  GO annotation: cellular response to cytokine stimulus (Term: cytokine): 32.9
  GO annotation: cellular response to interferon-alpha (Term: IFN alpha): 6.72
  GO annotation: cellular response to stress (Term: stress): 0
  GO annotation: chemokine production (Term: chemokine): 0
  GO annotation: chemokine-mediated signaling pathway (Term: chemokine): 0
  GO annotation: chemotaxis (Term: chemotaxis): 0
  GO annotation: cytokine biosynthetic process (Term: cytokine): 6.84
  GO annotation: cytokine metabolic process (Term: cytokine): 8.21
  GO annotation: cytokine production (Term: cytokine): 17.4
  GO annotation: cytokine secretion (Term: cytokine): 0
  GO annotation: cytokine-mediated signaling pathway (Term: cytokine): 16.4
  GO annotation: death (Term: cell death): 4.77
  GO annotation: defense response (Term: defense response): 62.7
  GO annotation: defense response to Gram-positive bacterium (Term: defense response): 0
  GO annotation: defense response to bacterium (Term: defense response): 8.38
  GO annotation: defense response to other organism (Term: defense response): 37
  GO annotation: defense response to protozoan (Term: defense response): 4.37
  GO annotation: defense response to virus (Term: defense response): 19.8
  GO annotation: granulocyte chemotaxis (Term: chemotaxis): 0
  GO annotation: granulocyte migration (Term: migration): 0
  GO annotation: immune response (Term: immune response): 42.2
  GO annotation: immune response-activating signal transduction (Term: immune response): 14.1
  GO annotation: immune response-regulating signaling pathway (Term: immune response): 17.6
  GO annotation: inflammatory response (Term: inflammatory response): 11.5
  GO annotation: innate immune response (Term: innate immune response): 31.4
  GO annotation: innate immune response-activating signal transduction (Term: innate immune response): 16.2
  GO annotation: interferon-alpha production (Term: IFN alpha): 3.79
  GO annotation: intrinsic apoptotic signaling pathway (Term: apoptosis): 0
  GO annotation: leukocyte chemotaxis (Term: chemotaxis): 0
  GO annotation: leukocyte migration (Term: migration): 0
  GO annotation: leukocyte migration involved in inflammatory response (Term: inflammatory response): 0
  GO annotation: lymphocyte chemotaxis (Term: chemotaxis): 0
  GO annotation: lymphocyte migration (Term: migration): 0
  GO annotation: myeloid leukocyte migration (Term: migration): 0
  GO annotation: negative regulation of apoptotic process (Term: apoptosis): 0
  GO annotation: negative regulation of cell death (Term: cell death): 0
  GO annotation: negative regulation of cytokine production (Term: cytokine): 3.21
  GO annotation: negative regulation of defense response (Term: defense response): 0
  GO annotation: negative regulation of immune response (Term: immune response): 0
  GO annotation: negative regulation of innate immune response (Term: innate immune response): 0
  GO annotation: negative regulation of programmed cell death (Term: cell death): 0
  GO annotation: neutrophil chemotaxis (Term: chemotaxis): 0
  GO annotation: neutrophil migration (Term: migration): 0
  GO annotation: positive regulation of adaptive immune response (Term: adaptive immune response): 0
  GO annotation: positive regulation of apoptotic process (Term: apoptosis): 0
  GO annotation: positive regulation of cell death (Term: cell death): 0
  GO annotation: positive regulation of cell migration (Term: migration): 0
  GO annotation: positive regulation of chemokine production (Term: chemokine): 0
  GO annotation: positive regulation of chemotaxis (Term: chemotaxis): 0
  GO annotation: positive regulation of cytokine biosynthetic process (Term: cytokine): 0
  GO annotation: positive regulation of cytokine production (Term: cytokine): 11.1
  GO annotation: positive regulation of defense response (Term: defense response): 24.7
  GO annotation: positive regulation of immune response (Term: immune response): 15.7
  GO annotation: positive regulation of inflammatory response (Term: inflammatory response): 0
  GO annotation: positive regulation of innate immune response (Term: innate immune response): 17.2
  GO annotation: positive regulation of interferon-alpha production (Term: IFN alpha): 4.81
  GO annotation: positive regulation of leukocyte chemotaxis (Term: chemotaxis): 0
  GO annotation: positive regulation of leukocyte migration (Term: migration): 0
  GO annotation: positive regulation of programmed cell death (Term: cell death): 0
  GO annotation: positive regulation of response to wounding (Term: wounding): 0
  GO annotation: positive regulation of tumor necrosis factor superfamily cytokine (Term: cytokine): 0
  GO annotation: production of molecular mediator of immune response (Term: immune response): 0
  GO annotation: programmed cell death (Term: cell death): 6.49
  GO annotation: regulation of adaptive immune response (Term: adaptive immune response): 0
  GO annotation: regulation of adaptive immune response based on somatic recombination of immune receptors built from immunoglobulin superfamily domains (Term: adaptive immune response): 0
  GO annotation: regulation of apoptotic process (Term: apoptosis): 4.63
  GO annotation: regulation of apoptotic signaling pathway (Term: apoptosis): 0
  GO annotation: regulation of cell death (Term: cell death): 3.82
  GO annotation: regulation of cell migration (Term: migration): 0
  GO annotation: regulation of chemokine production (Term: chemokine): 0
  GO annotation: regulation of chemotaxis (Term: chemotaxis): 0
  GO annotation: regulation of cytokine biosynthetic process (Term: cytokine): 0
  GO annotation: regulation of cytokine production (Term: cytokine): 19.1
  GO annotation: regulation of defense response (Term: defense response): 37.5
  GO annotation: regulation of defense response to virus (Term: defense response): 0
  GO annotation: regulation of defense response to virus by host (Term: defense response): 0
  GO annotation: regulation of immune response (Term: immune response): 20.7
  GO annotation: regulation of inflammatory response (Term: inflammatory response): 0
  GO annotation: regulation of innate immune response (Term: innate immune response): 24.8
  GO annotation: regulation of interferon-alpha production (Term: IFN alpha): 4.28
  GO annotation: regulation of intrinsic apoptotic signaling pathway (Term: apoptosis): 0
  GO annotation: regulation of leukocyte chemotaxis (Term: chemotaxis): 0
  GO annotation: regulation of leukocyte migration (Term: migration): 0
  GO annotation: regulation of programmed cell death (Term: cell death): 4.93
  GO annotation: regulation of response to stress (Term: stress): 25.3
  GO annotation: regulation of response to wounding (Term: wounding): 3.31
  GO annotation: regulation of tumor necrosis factor superfamily cytokine production (Term: cytokine): 0
  GO annotation: response to cytokine (Term: cytokine): 45.9
  GO annotation: response to interferon-alpha (Term: IFN alpha): 14.8
  GO annotation: response to stress (Term: stress): 44.6
  GO annotation: response to wounding (Term: wounding): 0
  GO annotation: taxis (Term: chemotaxis): 0
  GO annotation: tumor necrosis factor superfamily cytokine production (Term: cytokine): 0
  IFN beta: cellular response to interferon-beta: 17.6
  IFN beta: interferon-beta production: 5.22
  IFN beta: positive regulation of interferon-beta production: 9.2
  IFN beta: regulation of interferon-beta production: 5.76
  IFN beta: response to interferon-beta: 23.5
  IFN gamma: cellular response to interferon-gamma: 7.44
  IFN gamma: interferon-gamma production: 0
  IFN gamma: regulation of interferon-gamma production: 0
  IFN gamma: response to interferon-gamma: 10
  interleukin-6: interleukin-6 production: 0
  interleukin-6: positive regulation of interleukin-6 production: 0
  interleukin-6: regulation of interleukin-6 production: 0
  interleukin-12: interleukin-12 production: 0
  interleukin-12: positive regulation of interleukin-12 production: 0
  interleukin-12: regulation of interleukin-12 production: 0
